Molecular target: T1, interaction between hUPF1 and hUPF3X (Homo sapiens, UniProt Q92900+Q9BZI7)
T1 construct: the hUPF1 protein was immunoprecipitated from HeLa cell extracts; endogenous in cells; host or cells: HeLa
T1 sequence (Q92900 1-1129): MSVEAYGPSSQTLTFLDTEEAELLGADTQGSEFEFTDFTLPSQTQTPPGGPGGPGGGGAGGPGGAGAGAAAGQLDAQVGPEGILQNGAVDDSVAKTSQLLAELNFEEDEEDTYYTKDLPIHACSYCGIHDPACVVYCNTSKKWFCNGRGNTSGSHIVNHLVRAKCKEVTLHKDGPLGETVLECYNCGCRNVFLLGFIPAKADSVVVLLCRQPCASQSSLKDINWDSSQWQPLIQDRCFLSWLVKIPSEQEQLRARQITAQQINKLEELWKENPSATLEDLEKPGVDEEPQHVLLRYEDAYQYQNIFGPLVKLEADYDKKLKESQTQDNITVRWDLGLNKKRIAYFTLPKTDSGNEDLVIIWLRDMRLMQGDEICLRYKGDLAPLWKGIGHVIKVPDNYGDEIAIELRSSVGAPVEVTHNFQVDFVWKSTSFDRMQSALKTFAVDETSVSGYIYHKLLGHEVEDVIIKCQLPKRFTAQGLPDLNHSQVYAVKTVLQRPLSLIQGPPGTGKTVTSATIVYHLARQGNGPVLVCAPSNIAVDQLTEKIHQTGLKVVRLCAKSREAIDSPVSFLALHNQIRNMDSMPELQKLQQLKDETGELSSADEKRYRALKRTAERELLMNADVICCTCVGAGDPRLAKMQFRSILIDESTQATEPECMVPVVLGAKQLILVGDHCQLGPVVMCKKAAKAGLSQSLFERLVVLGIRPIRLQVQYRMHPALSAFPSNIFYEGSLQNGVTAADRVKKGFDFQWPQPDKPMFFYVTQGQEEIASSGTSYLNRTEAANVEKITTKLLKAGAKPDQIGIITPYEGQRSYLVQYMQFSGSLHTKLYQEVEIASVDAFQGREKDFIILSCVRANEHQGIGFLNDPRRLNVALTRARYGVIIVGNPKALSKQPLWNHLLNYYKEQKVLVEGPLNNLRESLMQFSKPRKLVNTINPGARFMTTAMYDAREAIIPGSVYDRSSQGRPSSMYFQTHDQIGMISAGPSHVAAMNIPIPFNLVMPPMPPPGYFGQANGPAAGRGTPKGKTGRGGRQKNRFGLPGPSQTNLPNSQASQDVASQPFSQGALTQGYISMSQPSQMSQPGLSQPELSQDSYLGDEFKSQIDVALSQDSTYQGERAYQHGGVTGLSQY
T1 sequence (Q9BZI7 1-483): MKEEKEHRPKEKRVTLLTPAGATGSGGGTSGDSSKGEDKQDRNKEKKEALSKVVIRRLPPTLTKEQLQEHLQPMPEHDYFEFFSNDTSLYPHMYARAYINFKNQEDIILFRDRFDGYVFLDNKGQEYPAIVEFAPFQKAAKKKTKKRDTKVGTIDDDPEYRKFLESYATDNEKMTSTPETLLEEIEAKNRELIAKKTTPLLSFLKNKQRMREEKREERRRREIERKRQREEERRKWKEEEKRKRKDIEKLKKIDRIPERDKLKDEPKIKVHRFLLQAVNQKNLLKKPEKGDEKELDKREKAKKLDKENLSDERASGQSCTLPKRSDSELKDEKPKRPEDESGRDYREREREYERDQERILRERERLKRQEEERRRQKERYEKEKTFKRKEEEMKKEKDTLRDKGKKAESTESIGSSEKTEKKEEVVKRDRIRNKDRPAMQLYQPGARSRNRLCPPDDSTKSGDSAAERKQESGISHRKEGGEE
Assay: hUPF1 immunoprecipitation, presence of hUPF3X
Format: cell-based
Conditions: HeLa cell extracts, compound added 20 hours before IP
Experimental: Immunopurification of hUPF1 and western blot analysis were carried out according to a procedure described earlier (Lejeune and Maquat, 2004) by using an anti-hUPF1 antibody (Ohnishi et al., 2003), The western blot analyses were conducted by using a 1/250 dilution of anti-hUPF1, anti-hSMG5, anti-hSMG6 or anti-hSMG7 rabbit antibodies (Ohnishi et al., 2003), a 1/1000 dilution of anti-hUPF3/3X rabbit antibody (Ishigaki et al., 2001) or of anti-TUBILIN mouse antibody (SIGMA-ALDRICH). The proteins were detected by using the <<SuperSignal West Pico Chemiluminescent Substrate>> or <<SuperSignal West Femto Maximum Sensitivity Substrate>> (PIERCE).
In the light of the previous results, it was contemplated that the compound 70 would be able to prevent recruitment of hUPF1 to EJC via its interaction with other hUPF proteins. For this purpose, the hUPF1 protein was immunoprecipitated from HeLa cell extracts under conditions preserving the integrity of mRNPs (Lejeune and Maquat, 2004).
The compound 70 of DMSO(−) was added to cultures of cells 20 hours before immunoprecipitation (IP).

Cc1c2ccnc(Cl)c2c(C)c2c1[nH]c1ncccc12 [Compound 70, 6-Chloro-5,1-0dimethyl-11H-pyrido[3′,2′:4,5]-pyrrolo[3,2-g]isoquinoline]
interaction between hUPF1 and hUPF3X: not abolished
